{"source": "patent EP4792818A1", "about": "“COMPOUND SUITABLE FOR EXTERNAL USE, AND PHARMACEUTICAL COMPOSITION” (EnKang Pharmaceuticals (Guangzhou), Ltd., priority 2023, dated 2025)", "key": {"A431 cells": {"system": "A431 cells", "method": "(§1) The experimental procedures were as follows: The cells were subcultured in a complete medium containing 10% FBS in an incubator at 37 °C with 5% CO2 and saturated humidity. The cell density was adjusted to (3-5) × 10^4 cells/mL using a complete medium containing 10% FBS. The cell suspension was added to the wells of a 96-well culture plate at 100 µL/well, and the plate was incubated in an incubator at 37 °C with 5% CO2 and saturated humidity overnight (for about 16-24 hrs). Various dose groups of the test substance and a solvent control group were set. On the next day, the original culture medium was discarded. Subsequently, 20% FBS-containing complete medium was added at 100 µL/well, and the test substance or solvent in FBS-free medium was then added at 100 µL/well, resulting in a final FBS concentration of 10%. Meanwhile, a negative control group was set: each well received 100 µL of 20% FBS-containing complete medium + 100 µL of incomplete medium containing cells, resulting in a final FBS concentration of 10%. A zero adjustment group (background) was also set: 200 µL of the culture medium alone (100 µL of 20% FBS-containing complete medium + 100 µL of incomplete medium), without drugs and cells. For each concentration group, four replicate wells were set.\n(§2) After incubation for 48 hrs under the experimental conditions, the supernatant was discarded, and 110 µL of CCK-8 working solution (100 µL of 10% FBS-containing complete medium and 10 µL of CCK-8 solution) were added to each well. The cells were further incubated for 4 hrs, and the optical density value at a wavelength of 450 nm (A450) was then measured for each well using a microplate reader. The average value for the wells of each treatment group (T) was compared with the average value for the negative control wells (C). The percent inhibition rate of each concentration group was calculated using the following formula: [Inhibition rate = (1 - T/C) × 100%], and the half-maximal inhibitory concentration (IC50) was calculated."}, "COLO-16 cells [1]": {"system": "COLO-16 cells", "method": "as §1, §2"}, "SCL-1 cells [2]": {"system": "SCL-1 cells", "method": "as §1, §2"}, "[3]": {"system": "TE.354.T cells (human cutaneous basal cell carcinoma)", "method": "The experimental procedures were as follows: The cells were subcultured in a complete medium containing 10% FBS in an incubator at 37 °C with 5% CO2 and saturated humidity. The cell density was adjusted to (3-5) × 10^4 cells/mL using a complete medium containing 10% FBS. The cell suspension was added to the wells of a 96-well culture plate at 100 µL/well, and the plate was incubated in an incubator at 37 °C with 5% CO2 and saturated humidity overnight (for about 16-24 hrs). Various dose groups of the test substance and a solvent control group were set. On the next day, the original culture medium was discarded. Subsequently, 20% FBS-containing complete medium was added at 100 µL/well, and the test substance or solvent in FBS-free medium was then added at 100 µL/well, resulting in a final FBS concentration of 10%. Meanwhile, a negative control group was set: each well received 100 µL of 20% FBS-containing complete medium + 100 µL of incomplete medium containing cells, resulting in a final FBS concentration of 10%. A zero adjustment group (background) was also set: 200 µL of the culture medium alone (100 µL of 20% FBS-containing complete medium + 100 µL of incomplete medium), without drugs and cells. For each concentration group, four replicate wells were set. […]"}, "SCL-1 cells [4]": {"system": "SCL-1 cells", "conditions": "SCL-1 tumor-bearing nude mice, 21 days", "method": "(§3) Quarantine-qualified male BALB/c-nu nude mice weighing 13.4-20.5 g were each inoculated with 0.2 mL of SCL-1 cells in logarithmic growth phase at 3 x 10^6 cells/mL (with Matrigel and cell suspension mixed in a ratio of 1:2) in the right axilla. […] The drug was kept in contact with the skin for 4 hrs per administration, and the treatment was given to each group for three consecutive weeks. During the treatment period, the long diameter (a) and short diameter (b) of the tumors were measured using a vernier caliper every 3 days. Then, the tumor volume (TV), relative tumor volume (RTV), and relative tumor proliferation rate (T/C, %) were calculated. After the final administration, the tumor tissues were dissected out and weighed to calculate the tumor growth inhibition rates."}, "COLO-16 cells [5]": {"system": "COLO-16 cells", "conditions": "COLO-16 tumor-bearing nude mice, 21 days", "method": "as §3, with “weighing 13.7-21.1” for “weighing 13.4-20.5”, “of COLO-16” for “of SCL-1”, “at 6.7” for “at 3”, “cells/mL” for “cells/mL (with Matrigel and cell suspension mixed in a ratio of 1:2)”"}, "[6]": {"conditions": "20 °C"}, "[7]": {"conditions": "for Labeled amount (%) / Related substances (%) Impurity A / Related substances (%) Impurity B / Related substances (%) Impurity C / Related substances (%) Impurity D / Related substances (%) Impurity E / Related substances (%) Impurity F / Related substances (%) RRT0.73 / Related substances (%) RRT1.10 / Related substances (%) RRT2.18 / Related substances (%) Total impurities: mixed with CMC-Na 1:5"}, "[8]": {"conditions": "topical gel; for plasma drug concentrations above the LLOQ: 0.008-0.06 mg/cm^2, LLOQ 0.02 ng/mL"}, "[9]": {"system": "human liver cancer HepG2 cells", "conditions": "documented in CN 104736157 A; cited from earlier work"}, "[10]": {"conditions": "High humidity for 10 days (RH 90%±5%)"}, "[11]": {"conditions": "High temperature for 10 days (60 °C±2 °C)"}}, "note": "Read-outs that look alike come from different tables or passages of the source.", "data": [{"smiles": "CO[C@H]1[C@H](O)[C@H](O[C@H]2CC[C@@]3(C)[C@H](CC[C@@H]4[C@@H]3CC[C@]3(C)[C@@H](C5=CC(=O)OC5)CC[C@]43O)C2)O[C@@H](C)[C@@H]1O", "note": "[17β-neriifolin]", "values": [{"measurement": "growth inhibitory effects", "setting": "A431 cells", "value": "strong growth inhibitory effects"}, {"measurement": "growth inhibitory effects", "setting": "COLO-16 cells [1]", "value": "strong growth inhibitory effects"}, {"measurement": "growth inhibitory effects", "setting": "SCL-1 cells [2]", "value": "strong growth inhibitory effects"}, {"measurement": "growth inhibitory effects", "setting": "[3]", "value": "strong growth inhibitory effects"}, {"measurement": "anti-tumor effect compared with Imiquimod cream (50 mg/g)", "setting": "SCL-1 cells [4]", "value": "significantly superior to that of Imiquimod cream"}, {"measurement": "anti-tumor effect compared with Imiquimod cream (50 mg/g)", "setting": "COLO-16 cells [5]", "value": "significantly superior to that of Imiquimod cream"}, {"measurement": "Dissolution behavior", "setting": "[6]; Ethanol concentration 20 %, sample concentration 8 mg/g", "value": "dissolved"}, {"measurement": "Dissolution behavior", "setting": "[6]; Ethanol concentration 20 %, sample concentration 8 mg/g, listed as 17β-Neriifolin", "value": "Dissolved"}, {"measurement": "Dissolution behavior", "setting": "[6]; Ethanol concentration 45 %, sample concentration 20 mg/g", "value": "dissolved"}, {"measurement": "Dissolution behavior", "setting": "[6]; Ethanol concentration 45 %, sample concentration 20 mg/g, listed as 17β-Neriifolin", "value": "Dissolved"}, {"measurement": "Dissolution behavior", "setting": "[6]; Ethanol concentration 50 %, sample concentration 24 mg/g", "value": "Dissolved"}, {"measurement": "Dissolution behavior", "setting": "[6]; Ethanol concentration 66 %, sample concentration 32 mg/g", "value": "Dissolved"}, {"measurement": "Dissolution behavior", "setting": "[6]; Ethanol concentration 75 %, sample concentration 40 mg/g", "value": "Dissolved"}, {"measurement": "Dissolution behavior", "setting": "[6]; Ethanol concentration 100 %, sample concentration 50 mg/g", "value": "Dissolved"}, {"measurement": "impact of high temperature, high humidity, and illumination on the related substances and drug content", "setting": "[7]; combined with sodium carboxymethyl cellulose 1:5, 10 days", "value": "no impact"}, {"measurement": "stability of the combination with sodium carboxymethyl cellulose compared with the combination with Carbomer", "setting": "[7]; mass ratio 1:5, 10 days, high temperature, high humidity, illumination", "value": "significantly superior"}, {"measurement": "Labeled amount (%)", "setting": "[7]; 0 days", "value": 99.56, "unit": "%"}, {"measurement": "Related substances (%) Impurity A", "setting": "[7]; 0 days", "value": 0.17, "unit": "%"}, {"measurement": "Related substances (%) Impurity B", "setting": "[7]; 0 days", "value": 0.36, "unit": "%"}, {"measurement": "Related substances (%) Impurity C", "setting": "[7]; 0 days", "value": 0.25, "unit": "%"}, {"measurement": "Related substances (%) Impurity D", "setting": "[7]; 0 days", "value": 0.13, "unit": "%"}, {"measurement": "Related substances (%) Impurity E", "setting": "[7]; 0 days", "value": 0.15, "unit": "%"}, {"measurement": "Related substances (%) Impurity F", "setting": "[7]; 0 days", "value": 0.14, "unit": "%"}, {"measurement": "Related substances (%) RRT0.73", "setting": "[7]; 0 days", "value": 0.05, "unit": "%"}, {"measurement": "Related substances (%) RRT1.10", "setting": "[7]; 0 days", "value": 0.04, "unit": "%"}, {"measurement": "Related substances (%) RRT2.18", "setting": "[7]; 0 days", "value": 0.03, "unit": "%"}, {"measurement": "Related substances (%) Total impurities", "setting": "[7]; 0 days", "value": 1.32, "unit": "%"}, {"measurement": "Labeled amount (%)", "setting": "[7]; [10]", "value": 99.42, "unit": "%"}, {"measurement": "Related substances (%) Impurity A", "setting": "[7]; [10]", "value": 0.17, "unit": "%"}, {"measurement": "Related substances (%) Impurity B", "setting": "[7]; [10]", "value": 0.36, "unit": "%"}, {"measurement": "Related substances (%) Impurity C", "setting": "[7]; [10]", "value": 0.25, "unit": "%"}, {"measurement": "Related substances (%) Impurity D", "setting": "[7]; [10]", "value": 0.13, "unit": "%"}, {"measurement": "Related substances (%) Impurity E", "setting": "[7]; [10]", "value": 0.15, "unit": "%"}, {"measurement": "Related substances (%) Impurity F", "setting": "[7]; [10]", "value": 0.14, "unit": "%"}, {"measurement": "Related substances (%) RRT0.73", "setting": "[7]; [10]", "value": 0.05, "unit": "%"}, {"measurement": "Related substances (%) RRT1.10", "setting": "[7]; [10]", "value": 0.04, "unit": "%"}, {"measurement": "Related substances (%) RRT2.18", "setting": "[7]; [10]", "value": 0.03, "unit": "%"}, {"measurement": "Related substances (%) Total impurities", "setting": "[7]; [10]", "value": 1.32, "unit": "%"}, {"measurement": "Labeled amount (%)", "setting": "[7]; [11]", "value": 100.95, "unit": "%"}, {"measurement": "Related substances (%) Impurity A", "setting": "[7]; [11]", "value": 0.17, "unit": "%"}, {"measurement": "Related substances (%) Impurity B", "setting": "[7]; [11]", "value": 0.36, "unit": "%"}, {"measurement": "Related substances (%) Impurity C", "setting": "[7]; [11]", "value": 0.25, "unit": "%"}, {"measurement": "Related substances (%) Impurity D", "setting": "[7]; [11]", "value": 0.13, "unit": "%"}, {"measurement": "Related substances (%) Impurity E", "setting": "[7]; [11]", "value": 0.15, "unit": "%"}, {"measurement": "Related substances (%) Impurity F", "setting": "[7]; [11]", "value": 0.14, "unit": "%"}, {"measurement": "Related substances (%) RRT0.73", "setting": "[7]; [11]", "value": 0.05, "unit": "%"}, {"measurement": "Related substances (%) RRT1.10", "setting": "[7]; [11]", "value": 0.04, "unit": "%"}, {"measurement": "Related substances (%) RRT2.18", "setting": "[7]; [11]", "value": 0.03, "unit": "%"}, {"measurement": "Related substances (%) Total impurities", "setting": "[7]; [11]", "value": 1.32, "unit": "%"}, {"measurement": "Labeled amount (%)", "setting": "[7]; Strong light for 10 days", "value": 99.96, "unit": "%"}, {"measurement": "Related substances (%) Impurity A", "setting": "[7]; Strong light for 10 days", "value": 0.17, "unit": "%"}, {"measurement": "Related substances (%) Impurity B", "setting": "[7]; Strong light for 10 days", "value": 0.36, "unit": "%"}, {"measurement": "Related substances (%) Impurity C", "setting": "[7]; Strong light for 10 days", "value": 0.25, "unit": "%"}, {"measurement": "Related substances (%) Impurity D", "setting": "[7]; Strong light for 10 days", "value": 0.13, "unit": "%"}, {"measurement": "Related substances (%) Impurity E", "setting": "[7]; Strong light for 10 days", "value": 0.15, "unit": "%"}, {"measurement": "Related substances (%) Impurity F", "setting": "[7]; Strong light for 10 days", "value": 0.14, "unit": "%"}, {"measurement": "Related substances (%) RRT0.73", "setting": "[7]; Strong light for 10 days", "value": 0.05, "unit": "%"}, {"measurement": "Related substances (%) RRT1.10", "setting": "[7]; Strong light for 10 days", "value": 0.04, "unit": "%"}, {"measurement": "Related substances (%) RRT2.18", "setting": "[7]; Strong light for 10 days", "value": 0.03, "unit": "%"}, {"measurement": "Related substances (%) Total impurities", "setting": "[7]; Strong light for 10 days", "value": 1.32, "unit": "%"}, {"measurement": "plasma drug concentrations above the LLOQ", "setting": "[8]; four Australian subjects", "value": "0.021 to 0.101", "unit": "ng/mL"}, {"measurement": "plasma drug concentrations above the LLOQ", "setting": "[8]; seven Chinese subjects", "value": "0.022 to 0.106", "unit": "ng/mL"}, {"measurement": "dose dependence of systemic exposure", "setting": "[8]; 0.008-0.06 mg/cm^2 dose range", "value": "No dose-dependent increase"}, {"measurement": "cell cycle arrest and apoptosis", "setting": "[9]", "value": "induce cell cycle arrest and apoptosis"}]}]}
